From patent US20260184691A1, “INHIBITORS AND DEGRADERS OF PIP4K PROTEIN” (Larkspur Biosciences, Inc., priority 2022, published 2026)

target: T1, endogenous PIP4K2C C-terminally tagged with HiBiT peptide in MOLT-4 cells (Homo sapiens, UniProt Q8TBX8); experiment: HiBiT PIP4K2C degradation assay in MOLT-4 cells; assay type: cell-based; settings: 24 hours, 10-point dose response, top concentration 10 micromolar, read-out: HiBIT-degradation MOLT4 PIP4k2C 24 hours DC50
T1 construct: to C-terminally tag endogenous PIP4K2C with HiBiT peptide; host or cells: MOLT-4 (CRISPR-Cas9 knock-in clone)
T1 sequence (Q8TBX8 1-421): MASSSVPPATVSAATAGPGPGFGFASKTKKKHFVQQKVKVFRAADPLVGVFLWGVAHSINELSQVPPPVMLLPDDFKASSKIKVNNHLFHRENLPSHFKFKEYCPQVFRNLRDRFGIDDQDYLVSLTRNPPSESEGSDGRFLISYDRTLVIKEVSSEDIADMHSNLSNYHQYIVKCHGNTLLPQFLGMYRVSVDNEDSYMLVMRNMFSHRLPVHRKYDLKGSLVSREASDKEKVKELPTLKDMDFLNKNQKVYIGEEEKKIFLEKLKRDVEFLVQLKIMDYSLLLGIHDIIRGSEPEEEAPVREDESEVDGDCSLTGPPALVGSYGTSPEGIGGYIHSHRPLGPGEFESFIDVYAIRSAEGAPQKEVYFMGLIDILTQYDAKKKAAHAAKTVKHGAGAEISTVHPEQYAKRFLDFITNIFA
Method: Following clonal selection, genotype was confirmed by Sanger sequencing. […] Nano-Glo® HiBiT Lytic Assay System was purchased from Promega (Madison, WI, Catalog number N3030). Cell culture flasks and 384-well microplates were purchased from Corning (Glendale, AZ).
To study PIP4K2C degradation, 384-well plates were plated with a 10-point dose response curve, 3-fold dilution, in duplicate with a top starting concentration of 10 micromolar. Subsequently 22,500 cells were added to each well and incubated at 37C in 5% CO2 for 24 hours. At the end of the incubation time, cells were treated with the Nano-Glo® HiBiT Lytic Detection System following the manufacturer's instructions. Luminescence was measured with a PHERAstar FSX plate reader (BMG Labtech, Cary, NC). The Levenberg-Marquardt algorithm was used to fit a Hill equation to dose-response data to calculate DC50 values (see Table 6).

DC50 | SMILES
< 500 nM | O=C1CCC(N2Cc3cc(OCCCCCCCCCC(=O)N4CCC5(CC4)CCN(c4cncc(Nc6ncc(Cl)c(-c7cccc(-c8ccccc8)c7)n6)c4)C5=O)ccc3C2=O)C(=O)N1 (stereo not drawn) [Compound 61, 3-(5-((10-(2-(5-((4-([1,1′-biphenyl]-3-yl)-5-chloropyrimidin-2-yl)amino)pyridin-3-yl)-1-oxo-2,8-diazaspiro[4.5]decan-8-yl)-10-oxodecyl)oxy)-1-oxoisoindolin-2-yl)piperidine-2,6-dione]
< 500 nM | O=C1CCC(N2Cc3cc(OCCCCCCCCC(=O)N4CCC5(CC4)CCN(c4cncc(Nc6ncc(Cl)c(-c7cccc(-c8ccccc8)c7)n6)c4)C5=O)ccc3C2=O)C(=O)N1 (stereo not drawn) [Compound 62, 3-(5-((9-(2-(5-((4-([1,1′-biphenyl]-3-yl)-5-chloropyrimidin-2-yl)amino)pyridin-3-yl)-1-oxo-2,8-diazaspiro[4.5]decan-8-yl)-9-oxononyl)oxy)-1-oxoisoindolin-2-yl)piperidine-2,6-dione]
< 500 nM | O=C1CCC(N2Cc3cc(OCCCCCCCC(=O)N4CCC5(CC4)CCN(c4cncc(Nc6ncc(Cl)c(-c7cccc(-c8ccccc8)c7)n6)c4)C5=O)ccc3C2=O)C(=O)N1 (stereo not drawn) [Compound 63, 3-(5-((8-(2-(5-((4-([1,1′-biphenyl]-3-yl)-5-chloropyrimidin-2-yl)amino)pyridin-3-yl)-1-oxo-2,8-diazaspiro[4.5]decan-8-yl)-8-oxooctyl)oxy)-1-oxoisoindolin-2-yl)piperidine-2,6-dione]
< 500 nM | O=C1CCC(N2Cc3cc(OCCCCCCC(=O)N4CCC5(CC4)CCN(c4cncc(Nc6ncc(Cl)c(-c7cccc(-c8ccccc8)c7)n6)c4)C5=O)ccc3C2=O)C(=O)N1 (stereo not drawn) [Compound 64, 3-(5-((7-(2-(5-((4-([1,1′-biphenyl]-3-yl)-5-chloropyrimidin-2-yl)amino)pyridin-3-yl)-1-oxo-2,8-diazaspiro[4.5]decan-8-yl)-7-oxoheptyl)oxy)-1-oxoisoindolin-2-yl)piperidine-2,6-dione]
< 500 nM | O=C1CCC(N2C(=O)c3cccc(OCCCN4CCN(CCCCC(=O)Nc5cncc(Nc6ncc(Cl)c(-c7cccc(-c8ccccc8)c7)n6)c5)CC4)c3C2=O)C(=O)N1 (stereo not drawn) [Compound 65, N-(5-((4-([1,1′-biphenyl]-3-yl)-5-chloropyrimidin-2-yl)amino)pyridin-3-yl)-5-(4-(3-((2-(2,6-dioxopiperidin-3-yl)-1,3-dioxoisoindolin-4-yl)oxy)propyl)piperazin-1-yl)pentanamide]
< 500 nM | O=C(COc1cccc2c1CN(C1CCC(=O)NC1=O)C2=O)NCCCCCCCCCC(=O)Nc1cncc(Nc2ncc(Cl)c(-c3cccc(-c4ccccc4)c3)n2)c1 (stereo not drawn) [Compound 66, N-(5-((4-([1,1′-biphenyl]-3-yl)-5-chloropyrimidin-2-yl)amino)pyridin-3-yl)-10-(2-((2-(2,6-dioxopiperidin-3-yl)-1-oxoisoindolin-4-yl)oxy)acetamido)decanamide]
< 500 nM | O=C1CCC(N2C(=O)c3cccc(OCCCN4CCN(CCCCCCCC(=O)Nc5cncc(Nc6ncc(Cl)c(-c7cccc(-c8ccccc8)c7)n6)c5)CC4)c3C2=O)C(=O)N1 (stereo not drawn) [Compound 67, N-(5-((4-([1,1′-biphenyl]-3-yl)-5-chloropyrimidin-2-yl)amino)pyridin-3-yl)-8-(4-(3-((2-(2,6-dioxopiperidin-3-yl)-1,3-dioxoisoindolin-4-yl)oxy)propyl)piperazin-1-yl)octanamide]
< 500 nM | O=C1CCC(N2C(=O)c3cccc(OCCCN4CCN(CCCCCC(=O)Nc5cncc(Nc6ncc(Cl)c(-c7cccc(-c8ccccc8)c7)n6)c5)CC4)c3C2=O)C(=O)N1 (stereo not drawn) [Compound 68, N-(5-((4-([1,1′-biphenyl]-3-yl)-5-chloropyrimidin-2-yl)amino)pyridin-3-yl)-6-(4-(3-((2-(2,6-dioxopiperidin-3-yl)-1,3-dioxoisoindolin-4-yl)oxy)propyl)piperazin-1-yl)hexanamide]
< 500 nM | O=C1CCC(N2Cc3c(OCCCCCCCCCC(=O)N4CCC5(CC4)CCN(c4cncc(Nc6ncc(Cl)c(-c7cccc(-c8ccccc8)c7)n6)c4)C5=O)cccc3C2=O)C(=O)N1 (stereo not drawn) [Compound 69, 3-(4-((10-(2-(5-((4-([1,1′-biphenyl]-3-yl)-5-chloropyrimidin-2-yl)amino)pyridin-3-yl)-1-oxo-2,8-diazaspiro[4.5]decan-8-yl)-10-oxodecyl)oxy)-1-oxoisoindolin-2-yl)piperidine-2,6-dione]
< 500 nM | O=C1CCC(N2Cc3c(OCCCCCCCC(=O)N4CCC5(CC4)CCN(c4cncc(Nc6ncc(Cl)c(-c7cccc(-c8ccccc8)c7)n6)c4)C5=O)cccc3C2=O)C(=O)N1 (stereo not drawn) [Compound 70, 3-(4-((8-(2-(5-((4-([1,1′-biphenyl]-3-yl)-5-chloropyrimidin-2-yl)amino)pyridin-3-yl)-1-oxo-2,8-diazaspiro[4.5]decan-8-yl)-8-oxooctyl)oxy)-1-oxoisoindolin-2-yl)piperidine-2,6-dione]
< 500 nM | O=C1CCC(N2Cc3c(OCCCCCCCCC(=O)N4CCC5(CC4)CCN(c4cncc(Nc6ncc(Cl)c(-c7cccc(-c8ccccc8)c7)n6)c4)C5=O)cccc3C2=O)C(=O)N1 (stereo not drawn) [Compound 71, 3-(4-((9-(2-(5-((4-([1,1′-biphenyl]-3-yl)-5-chloropyrimidin-2-yl)amino)pyridin-3-yl)-1-oxo-2,8-diazaspiro[4.5]decan-8-yl)-9oxononyl)oxy)-1-oxoisoindolin-2-yl)piperidine-2,6-dione]
< 500 nM | O=C1CCC(N2C(=O)c3ccc(OCCCCCCCCC(=O)N4CCC5(CC4)CCN(c4cncc(Nc6ncc(Cl)c(-c7cccc(-c8ccccc8)c7)n6)c4)C5=O)cc3C2=O)C(=O)N1 (stereo not drawn) [Compound 72, 5-((9-(2-(5-((4-([1,1′-biphenyl]-3-yl)-5-chloropyrimidin-2-yl)amino)pyridin-3-yl)-1-oxo-2,8-diazaspiro[4.5]decan-8-yl)-9-oxononyl)oxy)-2-(2,6-dioxopiperidin-3-yl)isoindoline-1,3-dione]
< 500 nM | O=C1CCC(N2C(=O)c3ccc(OCCCCCCCC(=O)N4CCC5(CC4)CCN(c4cncc(Nc6ncc(Cl)c(-c7cccc(-c8ccccc8)c7)n6)c4)C5=O)cc3C2=O)C(=O)N1 (stereo not drawn) [Compound 73, 5-((8-(2-(5-((4-([1,1′-biphenyl]-3-yl)-5-chloropyrimidin-2-yl)amino)pyridin-3-yl)-1-oxo-2,8-diazaspiro[4.5]decan-8-yl)-8-oxooctyl)oxy)-2-(2,6-dioxopiperidin-3-yl)isoindoline-1,3-dione]
< 500 nM | O=C1CCC(N2C(=O)c3ccc(OCCCCCCC(=O)N4CCC5(CC4)CCN(c4cncc(Nc6ncc(Cl)c(-c7cccc(-c8ccccc8)c7)n6)c4)C5=O)cc3C2=O)C(=O)N1 (stereo not drawn) [Compound 74, 5-((7-(2-(5-((4-([1,1′-biphenyl]-3-yl)-5-chloropyrimidin-2-yl)amino)pyridin-3-yl)-1-oxo-2,8-diazaspiro[4.5]decan-8-yl)-7-oxoheptyl)oxy)-2-(2,6-dioxopiperidin-3-yl)isoindoline-1,3-dione]
< 500 nM | O=C1CCC(N2C(=O)c3ccc(OCCCCCC(=O)N4CCC5(CC4)CCN(c4cncc(Nc6ncc(Cl)c(-c7cccc(-c8ccccc8)c7)n6)c4)C5=O)cc3C2=O)C(=O)N1 (stereo not drawn) [Compound 75, 5-((6-(2-(5-((4-([1,1′-biphenyl]-3-yl)-5-chloropyrimidin-2-yl)amino)pyridin-3-yl)-1-oxo-2,8-diazaspiro[4.5]decan-8-yl)-6-oxohexyl)oxy)-2-(2,6-dioxopiperidin-3-yl)isoindoline-1,3-dione]
< 500 nM | O=C1CCC(N2C(=O)c3ccc(OCCCCC(=O)N4CCC5(CC4)CCN(c4cncc(Nc6ncc(Cl)c(-c7cccc(-c8ccccc8)c7)n6)c4)C5=O)cc3C2=O)C(=O)N1 (stereo not drawn) [Compound 76, 5-((5-(2-(5-((4-([1,1′-biphenyl]-3-yl)-5-chloropyrimidin-2-yl)amino)pyridin-3-yl)-1-oxo-2,8-diazaspiro[4.5]decan-8-yl)-5-oxopentyl)oxy)-2-(2,6-dioxopiperidin-3-yl)isoindoline-1,3-dione]
< 500 nM | O=C(COc1cccc2c1C(=O)N(C1CCC(=O)NC1=O)C2=O)NCCCCCCCC(=O)N1CCC2(CC1)CCN(c1cncc(Nc3ncc(Cl)c(-c4cccc(-c5ccccc5)c4)n3)c1)C2=O (stereo not drawn) [Compound 77, N-(8-(2-(5-((4-([1,1′-biphenyl]-3-yl)-5-chloropyrimidin-2-yl)amino)pyridin-3-yl)-1-oxo-2,8-diazaspiro[4.5]decan-8-yl)-8-oxooctyl)-2-((2-(2,6-dioxopiperidin-3-yl)-1,3-dioxoisoindolin-4-yl)oxy)acetamide]
500 to 1000 nM | O=C1CCC(N2C(=O)c3cccc(OCCCCCCCCC(=O)N4CCC5(CC4)CCN(c4cncc(Nc6ncc(Cl)c(-c7cccc(-c8ccccc8)c7)n6)c4)C5=O)c3C2=O)C(=O)N1 (stereo not drawn) [Compound 78, 4-((9-(2-(5-((4-([1,1′-biphenyl]-3-yl)-5-chloropyrimidin-2-yl)amino)pyridin-3-yl)-1-oxo-2,8-diazaspiro[4.5]decan-8-yl)-9-oxononyl)oxy)-2-(2,6-dioxopiperidin-3-yl)isoindoline-1,3-dione]
